In patent publication US20050191283A1, “Methods of treating NFAT-related disorders” (priority 2003, published 2005):
Entries after “also recorded” stand apart in the source; their conditions may differ.

Columns and labels:
[1] = system: NFATc2 expression in adult T lymphocytes; test: NFATc2 protein expression by intracellular flow cytometry in gated CD3+ cells of stimulated adult MNC; assay type: cell-based, human; conditions: adult MNC stimulated 24 h, exogenous IFN-γ 100 U/ml
Procedure: (§1) Human umbilical cord blood from full-term deliveries by vaginal or caesarean sections and adult peripheral blood from healthy donors was collected according to guidelines by the Institutional Review Board at University Hospitals of Cleveland. Mononuclear cells (MNC) were isolated by gradient centrifugation, as previously described (6) and used immediately fresh.
(§2) Total MNC were stimulated in bulk culture as previously described (6). Briefly, 2×10^6 cells/ml were stimulated with 2 μg/ml of concanavalin A (ConA) (Sigma Chemical Co, St Louis, Mo.) in complete RPMI medium (Gibco BRL, Gaithersburg, Md.), containing 10% fetal bovine serum (Gibco BRL), 1 mM Sodium-pyruvate, 0.1 mM nonessential amino acids, 10 mM HEPES and 58 μM 2-mercaptoethanol (Sigma Chemical Co), in presence or absence of the manufacturer's recommended concentration of 1 μg/ml of cyclosporin A (CsA) (Sigma Chemical Co), as previously described (7). Where specified, IFN-γ (Roche, Indianapolis, Ind.) was added at indicated concentrations, or neutralizing anti-IFN-γ antibody (R&D Systems, Minneapolis, Minn.) was added at a concentration of 0.25-2 μg/ml. […]
(§3) Intracellular IFN-γ staining was performed as described previously (6, 7). […] 20,000-80,000 events were acquired on a calibrated Elite ESP flow cytometer (Coulter, Miami, Fla.) and data were analyzed with WinList software (Verity Software House Inc, Topsham, Minn.). […]

[2] = system: NFATc2 expression in UCB T lymphocytes; test: NFATc2 protein expression by intracellular flow cytometry in gated CD3+ cells of UCB MNC; assay type: cell-based, human; conditions: for NFATc2 expression (dual staining for NFATc2 and IFN-γ): ConA alone or ConA + 100 U/ml IFN-γ
Procedure: as §1
(§4) Total MNC were stimulated in bulk culture as previously described (6). Briefly, 2×10^6 cells/ml were stimulated with 2 μg/ml of concanavalin A (ConA) (Sigma Chemical Co, St Louis, Mo.) in complete RPMI medium (Gibco BRL, Gaithersburg, Md.), containing 10% fetal bovine serum (Gibco BRL), 1 mM Sodium-pyruvate, 0.1 mM nonessential amino acids, 10 mM HEPES and 58 μM 2-mercaptoethanol (Sigma Chemical Co), in presence or absence of the manufacturer's recommended concentration of 1 μg/ml of cyclosporin A (CsA) (Sigma Chemical Co), as previously described (7). Where specified, IFN-γ (Roche, Indianapolis, Ind.) was added at indicated concentrations, or neutralizing anti-IFN-γ antibody (R&D Systems, Minneapolis, Minn.) was added at a concentration of 0.25-2 μg/ml. Purified T cells were stimulated as described (26), with plate-bound anti-CD3 (1 μg/ml) and soluble anti-CD28 (5 μg/ml) monoclonal antibodies. Elispot assays were performed as previously described (27). Briefly, ImmunoSpot plates M200 (Cellular Technology Limited, Cleveland Ohio) were coated with capture antibody for IFN-γ M700A-E (2 μg/ml; Endogen, Woburn, Mass.), washed and MNC were plated in complete RPMI medium with 5% ABO serum (Gemini Bioproducts, Calmasas, Calif.)+1% L-glutamine, at 3×10^5 per well. Cells were stimulated with irradiated 3×10^5 T-cell-depleted MNC from a healthy adult or cord blood. T cells were depleted with RosetteSep (StemCell Technologies, Vancouver, Canada), according to manufacturer's directions. After 24 h of stimulation, plates were washed and incubated over night with secondary biotinylated detection antibodies against IFN-γ M701 (0.5 μg/ml; Endogen, Woburn, Mass.). Streptavidin-HRP conjugate (Dako Corp., Carpenteria Calif.) was added and the spots were visualized using the HRP-substrate AEC (Pierce Pharmaceuticals, Rockford Ill.), and subjected to image analysis on a Series 1 ImmunoSpot Image Analyzer (Cellular Technology, Cleveland, Ohio) specifically designed for automated evaluation of ELISPOTs.
Intracellular IFN-γ staining was performed as described previously (6, 7). Briefly, MNC were stimulated for the indicated time points, for the last 6-8 h in the presence of 5 μg/ml of Brefeldin A (Sigma Chemical Co), and permeabilized. […] 20,000-80,000 events were acquired on a calibrated Elite ESP flow cytometer (Coulter, Miami, Fla.) and data were analyzed with WinList software (Verity Software House Inc, Topsham, Minn.). […]

[3] = system: IFN-γ expression in UCB T lymphocytes; test: Intracellular IFN-γ staining in gated CD3+ cells of UCB MNC; assay type: cell-based, human; conditions: for average percentage of T cells producing IFN-γ: whole UCB MNC
Procedure: as §1, §4
MNC from UCB were depleted of monocytes by using monoclonal antibody against CD11b (Pharmingen), followed by anti-IgG magnetic bead (Dynal) depletion as above, or by using anti-CD14 microbeads (Miltenyi Biotech Inc., Auburn, Calif.) and AutoMACS (Miltenyi Biotech Inc.), according to manufacturer's protocol.
Intracellular IFN-γ staining was performed as described previously (6, 7). […] 1×10^6 cells were stained for 30 minutes with the following antibodies: anti-IFN-γ-FITC or -PE (R&D Systems), anti-CD3-APC (Pharmingen), and anti-CD69-PE (Pharmingen) or -PerCP (Becton Dickinson, San Jose, Calif.) and the corresponding isotype controls (Pharmingen, Becton Dickinson). 20,000-80,000 events were acquired on a calibrated Elite ESP flow cytometer (Coulter, Miami, Fla.) and data were analyzed with WinList software (Verity Software House Inc, Topsham, Minn.). For intracellular staining of NFATc2, the same monoclonal antibody clone as used in immunoblotting was custom FITC-conjugated (Transduction Laboratories) and used at a titrated concentration of 1 μg/10^6 cells.

[4] = system: IFN-γ expression in purified UCB T cells; test: Intracellular IFN-γ staining in purified UCB T cells; assay type: cell-based, human
Procedure: as §1, §2, §3

[5] = system: IFN-γ expression in purified adult T cells; test: Intracellular IFN-γ staining in purified adult T cells; assay type: cell-based, human; conditions: anti-CD3/CD28 24 h, exogenous IFN-γ 100 U/ml
Procedure: as §1, §2, §3

[6] = system: IFN-γ expression by UCB MNC; conditions: exogenous IL-12 added to the stimulation conditions; cited from earlier work
[7] = experiment 1, whole UCB MNC, 24 h
[8] = experiment 2, whole UCB MNC, 24 h
[9] = experiment 3, whole UCB MNC, 24 h
[10] = experiment 4, whole UCB MNC, 24 h

## IFN-γ: IFN-γ (Roche, Indianapolis, Ind.) added exogenously during stimulation
[1]
  NFATc2 expression: further upregulation of NFATc2
[2]; ConA 16 h, added IFN-γ 10-1,000 U/ml, gated CD3+ cells
  NFATc2 protein expression: increased in a dose dependent manner
[2]
  NFATc2 expression (dual staining for NFATc2 and IFN-γ): strong increases of NFATc2 expression
[2]; absence of stimulation, IFN-γ alone 100 U/ml
  NFATc2 levels: intermediate between unstimulated and stimulated T lymphocytes; also recorded: only slightly increased NFATc2 expression
[3]; UCB MNC depleted of B cells and NK cells
  IFN-γ-mediated rescue effect: did not result in a significant loss of the IFN-γ-mediated rescue effect
[3]; UCB MNC depleted of monocytes prior to stimulation, ConA + IFN-γ, n=4
  average percentage of IFN-γ producing T cells: 1.0%
[3]; UCB MNC, ConA 24 h, exogenous IFN-γ 100 U/ml
  percentages of IFN-γ-expressing T lymphocytes: rose close to that measured in adult T lymphocytes
[3]; UCB MNC, ConA stimulation, dose titrated down
  lowest dose of exogenous IFN-γ with effective IFN-γ rescue: 50 U/ml
[3]; UCB MNC, no stimulation, IFN-γ alone 100 U/ml
  IFN-γ expression: did not stimulate IFN-γ expression
[3]; experiment 1, UCB MNC depleted of CD11b, 24 h
  percentages of CD3+ cells positive for IFN-γ staining: 0.89%
[3]; [7]
  percentages of CD3+ cells positive for IFN-γ staining: 1.38%
[3]; experiment 2, UCB MNC depleted of CD11b, 24 h
  percentages of CD3+ cells positive for IFN-γ staining: 0.92%
[3]; [8]
  percentages of CD3+ cells positive for IFN-γ staining: 1.41%
[3]; experiment 3, UCB MNC depleted of CD11b, 24 h
  percentages of CD3+ cells positive for IFN-γ staining: 1.30%
[3]; [9]
  percentages of CD3+ cells positive for IFN-γ staining: 1.74%
[3]; experiment 4, UCB MNC depleted of CD14, 24 h
  percentages of CD3+ cells positive for IFN-γ staining: 1.07%
[3]; [10]
  percentages of CD3+ cells positive for IFN-γ staining: 1.83%
[3]; n=4
  average percentage of T cells producing IFN-γ: 1.6%
[4]; ConA, IFN-γ added
  IFN-γ rescue effect: no IFN-γ rescue effect was observed
[4]; anti-CD3/CD28 24 h, exogenous IFN-γ 100 U/ml
  IFN-γ expression: could not be rescued
[5]
  IFN-γ expression: no increase in IFN-γ expression was observed

## concanavalin A [ConA, reference compound]
[2]
  NFATc2 expression (dual staining for NFATc2 and IFN-γ): increase in NFATc2 upregulation
[3]; UCB MNC, ConA alone
  IFN-γ expression: only a slight increase in IFN-γ expression
[3]; [7]
  percentages of CD3+ cells positive for IFN-γ staining: 0.96%
[3]; [8]
  percentages of CD3+ cells positive for IFN-γ staining: 0.78%
[3]; [9]
  percentages of CD3+ cells positive for IFN-γ staining: 0.96%
[3]; [10]
  percentages of CD3+ cells positive for IFN-γ staining: 1.05%
[3]; n=4
  average percentage of T cells producing IFN-γ: 0.9%

## TNF-A
[3]; UCB MNC, ConA 24 h, TNF-A (1 ng/ml) or IL-2 added in place of IFN-γ
  upregulation of IFN-γ expression: did not result in upregulation of IFN-γ expression

## C[C@H]1CCC/C=C/[C@@H]2C[C@H](O)C[C@H]2[C@H](O)/C=C/C(=O)O1 [Brefeldin A, reference compound]
[3]; UCB MNC, ConA ± IFN-γ 100 U/ml, BFA added immediately and for the whole stimulation (BFA 24 h)
  upregulation of IFN-γ in UCB T cells: no upregulation of IFN-γ could be observed

B1: IL-12: exogenous cytokine, literature result (ref 44) (protein, UniProt P29459 23-219; P29460 23-328, looked up)
Interleukin-12 subunit alpha: RNLPVATPDPGMFPCLHHSQNLLRAVSNMLQKARQTLEFYPCTSEEIDHEDITKDKTSTVEACLPLELTKNESCLNSRETSFITNGSCLASRKTSFMMALCLSSIYEDLKMYQVEFKTMNAKLLMDPKRQIFLDQNMLAVIDELMQALNFNSETVPQKSSLEEPDFYKTKIKLCILLHAFRIRAVTIDRVMSYLNAS
Interleukin-12 subunit beta: IWELKKDVYVVELDWYPDAPGEMVVLTCDTPEEDGITWTLDQSSEVLGSGKTLTIQVKEFGDAGQYTCHKGGEVLSHSLLLLHKKEDGIWSTDILKDQKEPKNKTFLRCEAKNYSGRFTCWWLTTISTDLTFSVKSSRGSSDPQGVTCGAATLSAERVRGDNKEYEYSVECQEDSACPAAEESLPIEVMVDAVHKLKYENYTSSFFIRDIIKPDPPKNLQLKPLKNSRQVEVSWEYPDTWSTPHSYFSLTFCVQVQGKSKREKKDRVFTDKTSATVICRKNASISVRAQDRYYSSSWSEWASVPCS
[6]
  IFN-γ expression by UCB MNC: could be increased
